Reference: patent US20250339399A1, “SUPRAMOLECULAR SELF-ASSEMBLY SYSTEM” (Beijing Creatron Institute of Pharmaceutical Research Co., …, priority 2022, published 2025)

What was measured:
[1] = Guest molecule concentration after incubation in initial medium without polymer (Comparative Example 1); assay type: physicochemical; conditions: 37° C.
How it was run: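 Dissolved guest content measured by HPLC of centrifuged supernatants (37° C., 13000 rpm, 5 min) sampled at 0.5 h, 3 h and 6 h. Incubation was polymer-free at 37° C.±0.5° C. in buffers of pH 2.0-7.4; nominal loading was set by maximum clinical dose.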

[2] = Binary supramolecular self-assembly systems of polymer and target: guest concentration over incubation time (Comparative Example 2); assay type: physicochemical; conditions: for Concentration of guest molecule in solution / Times that of the initial medium: 6 h
Method: Experiments were conducted according to the steps in Comparative Example 1, and quantitative analysis was carried out using the analytical method for each target to investigate the regulation ability […] stacking.

[3] = Binary (carrier), ternary and quaternary supramolecular self-assembly systems of polymer, carrier building block and target: guest concentration over incubation time (Examples 1-56); assay type: physicochemical; conditions: 6 h
How it was run: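 Targets were incubated at 37 °C in pH 2.0–7.4 buffers with 0.5% polymer alone or with carrier building blocks, after 0.5 h sonication for ternary systems, and shaken at 200 rpm. Samples at 0.5–6 h were centrifuged and diluted ≥10-fold, and dissolved target was quantified by HPLC; surfactant was added if needed.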

[4] = cited from earlier work
[5] = binary system with 0.5% polymer 101, incubation 0.5 h
[6] = binary system with 0.5% polymer 101, incubation 3 h
[7] = binary system with 0.5% polymer 101, incubation 6 h
[8] = binary system with 0.5% polymer 102, incubation 0.5 h
[9] = binary system with 0.5% polymer 102, incubation 3 h
[10] = binary system with 0.5% polymer 102, incubation 6 h
[11] = binary system with 0.5% polymer 103, incubation 0.5 h
[12] = binary system with 0.5% polymer 103, incubation 3 h
[13] = binary system with 0.5% polymer 103, incubation 6 h
[14] = binary system with 0.5% polymer 104, incubation 0.5 h
[15] = binary system with 0.5% polymer 104, incubation 3 h
[16] = binary system with 0.5% polymer 104, incubation 6 h
[17] = binary system with 0.5% polymer 106, incubation 0.5 h
[18] = binary system with 0.5% polymer 106, incubation 3 h
[19] = binary system with 0.5% polymer 106, incubation 6 h
[20] = binary system with 0.5% polymer 107, incubation 0.5 h
[21] = binary system with 0.5% polymer 107, incubation 3 h
[22] = binary system with 0.5% polymer 107, incubation 6 h
[23] = system built by polymers 102H and 103E3 with carrier 302
[24] = ternary: 102H (0.25% where stated) + 301, carrier % not stated

Row | SMILES | Concentration of guest molecule measured after different incubated time ([1]; 0.5 h, pH 6.8 phosphate buffer) | Concentration of guest molecule measured after different incubated time ([1]; 3 h, pH 6.8 phosphate buffer) | Concentration of guest molecule measured after different incubated time ([1]; 6 h, pH 6.8 phosphate buffer) | Concentration of the target in the solution measured after different incubation time [2, 5] | Concentration of the target in the solution measured after different incubation time [2, 6] | Concentration of the target in the solution measured after different incubation time [2, 7] | Concentration of the target in the solution measured after different incubation time [2, 8] | Concentration of the target in the solution measured after different incubation time [2, 9] | Concentration of the target in the solution measured after different incubation time [2, 10] | Concentration of the target in the solution measured after different incubation time [2, 11] | Concentration of the target in the solution measured after different incubation time [2, 12] | Concentration of the target in the solution measured after different incubation time [2, 13] | Concentration of the target in the solution measured after different incubation time [2, 14] | Concentration of the target in the solution measured after different incubation time [2, 15] | Concentration of the target in the solution measured after different incubation time [2, 17] | Concentration of the target in the solution measured after different incubation time [2, 18] | Concentration of the target in the solution measured after different incubation time [2, 19] | Concentration of the target in the solution measured after different incubation time [2, 20] | Concentration of the target in the solution measured after different incubation time [2, 21] | Concentration of the target in the solution measured after different incubation time [2, 22] | also measured
1 | COc1cc2nccc(Oc3ccc(NC(=O)NC4CC4)c(Cl)c3)c2cc1C(N)=O [Lenvatinib] | 7.6 µg/mL | 1.7 µg/mL | 0.9 µg/mL | 45.5 µg/mL | 29.3 µg/mL | 28.6 µg/mL | 76.8 µg/mL | 26.2 µg/mL | 27.8 µg/mL | 12.9 µg/mL | 11.3 µg/mL | 7.6 µg/mL | 37.8 µg/mL | 42.7 µg/mL | 7.3 µg/mL | 7.9 µg/mL | 6.5 µg/mL | 68.2 µg/mL | 9.7 µg/mL | 6.1 µg/mL | Concentration of the target in the solution measured after different incubation time [2, 16]: 67.5 µg/mL; Concentration of guest molecule in solution ([2]; binary: 102H, % not stated at the place): 59.5 µg/mL; Concentration of guest molecule in solution ([2]; binary: 104, % not stated at the place): 47.6 µg/mL; Concentration of guest molecule in solution ([3]; quaternary: 0.25% 205 (102H+104) + 310): 116.4 µg/mL; Concentration of guest molecule in solution ([3]; quaternary: 0.25% 205 (102H+104) + 313, carrier % not stated): 112.1 µg/mL; LogD7.4 or Log P [4]: 2.52
2 | CCCNS(=O)(=O)Nc1ncnc(OCCOc2ncc(Br)cn2)c1-c1ccc(Br)cc1 [Macitentan] | 35.0 µg/mL | 33.8 µg/mL | 28.0 µg/mL | 56.0 µg/mL | 75.2 µg/mL | 46.2 µg/mL | 56.5 µg/mL | 71.5 µg/mL | 89.5 µg/mL | 34.3 µg/mL | 28.5 µg/mL | 27.7 µg/mL | – | – | 41.5 µg/mL | 35.6 µg/mL | 32.5 µg/mL | 46.5 µg/mL | 43.5 µg/mL | 39.3 µg/mL | Concentration of the target in the solution measured after different incubation time ([2]; binary system with 0.5% polymer 110, incubation 0.5 h): 28.7 µg/mL; Concentration of the target in the solution measured after different incubation time ([2]; binary system with 0.5% polymer 110, incubation 3 h): 34.7 µg/mL; Concentration of the target in the solution measured after different incubation time ([2]; binary system with 0.5% polymer 110, incubation 6 h): 33.5 µg/mL; Concentration of guest molecule in solution ([2]; binary: 0.5% 101): 46.2 µg/mL; Times that of the initial medium ([2]; binary: 0.5% 101): 4.3 times; Concentration of guest molecule in solution ([2]; binary: 0.5% 102H): 89.5 µg/mL; Times that of the initial medium ([2]; binary: 0.5% 102H): 10.4 times; Concentration of guest molecule in solution ([3]; Comparative Example 4, quaternary: 0.25% 201 + 0.25% 305): 59.5 µg/mL; Concentration of guest molecule in solution ([3]; Comparative Example 4, quaternary: 0.25% 201 + 0.25% 309): 29.2 µg/mL; Concentration of guest molecule in solution ([3]; quaternary: 0.25% 201 (102H+101) + 0.25% 307): 362.5 µg/mL; Concentration of guest molecule in solution ([3]; quaternary: 0.25% 201 (102H+101) + 0.25% 308): 516.0 µg/mL; Concentration of guest molecule in solution ([3]; quaternary: 0.25% 201 (102H+101) + 0.25% 313): 474.6 µg/mL; Concentration of guest molecule in solution ([3]; quaternary: 0.25% 201 (102H+101) + 0.25% 320): 562.4 µg/mL; Concentration of guest molecule in solution ([3]; quaternary: 0.25% 201 (102H+101) + 0.25% 321): 596.3 µg/mL; LogP [4]: LogP 3.55
3 | Cc1cn(-c2cc(NC(=O)c3ccc(C)c(Nc4nccc(-c5cccnc5)n4)c3)cc(C(F)(F)F)c2)cn1 [Nilotinib] | – | – | – | 117.0 µg/mL | 145.8 µg/mL | 149.9 µg/mL | 96.7 µg/mL | 188.9 µg/mL | 189.9 µg/mL | 125.2 µg/mL | 159.3 µg/mL | 181.5 µg/mL | 77.5 µg/mL | 84.9 µg/mL | 121.2 µg/mL | 81.8 µg/mL | 50.0 µg/mL | 107.2 µg/mL | 62.3 µg/mL | 52.3 µg/mL | Concentration of guest molecule measured after different incubated time ([1]; 0.5 h, 0.05% SDS in pH 6.8 phosphate buffer): 35.2 µg/mL; Concentration of guest molecule measured after different incubated time ([1]; 3 h, 0.05% SDS in pH 6.8 phosphate buffer): 24.2 µg/mL; Concentration of guest molecule measured after different incubated time ([1]; 6 h, 0.05% SDS in pH 6.8 phosphate buffer): 17.9 µg/mL; Concentration of the target in the solution measured after different incubation time [2, 16]: 61.4 µg/mL; Times that of the initial medium ([2]; binary: 0.5% 102H): about 8.5 times; Times that of the initial medium ([2]; binary: 0.5% 104): ~2.7 times; Concentration of guest molecule in solution [3, 23]: 391.1 µg/mL; Encapsulation rate for the guest molecule [3, 23]: 97.8%; Concentration of guest molecule in solution [3, 24]: 227.2 µg/mL; Times that of the initial medium [3, 24]: 10 times; Concentration of guest molecule in solution ([3]; ternary: 102H + 310, carrier % not stated): 317.6 µg/mL; Concentration of guest molecule in solution ([3]; ternary: 102H + 313, carrier % not given): 365.2 µg/mL; Concentration of guest molecule in solution ([3]; ternary: 102M + 310): 344.0 µg/mL; Concentration of guest molecule in solution ([3]; ternary: 102M + 313): 328.9 µg/mL; Dissociation constant ([4]; basic drug): 5.92; LogD7.4 or Log P [4]: 5.35; Log D6.8 ([4]; pH 6.8): 5.27
